Where “and” joins values, the source holds several entries; their conditions need not be identical. Equal values may be shown once.
What was measured:
[1] = xn = mol fraction of the nth substance listed; settings: 101 kPa, Liquid; for speed of sound: Linear variable-path acoustic interferometer; for mass density: Pycnometric method
[2] = 101 kPa, Liquid; for speed of sound: Linear variable-path acoustic interferometer; for mass density: Pycnometric method

Cc1cccc(N)c1 [3-methylaniline] + C1CCOC1
[1]
Settings	mass density, 303.15 K [kg/m3]	mass density, 313.15 K [kg/m3]	mass density, 323.15 K [kg/m3]	speed of sound, 303.15 K [m/s]	speed of sound, 313.15 K [m/s]	speed of sound, 323.15 K [m/s]
x2 = 0	980.8	972.7	964.6	1567	1533	1492
x2 = 0.0864	975.3	968	960.1	1544	1513	1474
x2 = 0.1853	969.2	962.6	955	1522	1488	1451
x2 = 0.2831	963	956.4	948.9	1497	1463	1425
x2 = 0.3776	956.4	949.7	941.9	1472	1436	1398
x2 = 0.4693	949	942	933.9	1447	1409	1372
x2 = 0.5689	939.3	931.9	923.6	1416	1375	1339
x2 = 0.6803	926.2	918.4	909.8	1378	1338	1301
x2 = 0.7808	912.4	904.3	895.3	1341	1300	1261
x2 = 0.8886	895.6	886.8	877.2	1300	1255	1217

C1CCOC1 [tetrahydrofuran]
[2]
Settings	mass density [kg/m3]	speed of sound [m/s]
303.15 K	876.9	1254
313.15 K	865.7	1207
323.15 K	854.8	1165

Cc1ccccc1N [2-methylaniline] + CC(C)OC(C)C
[1]
Settings	mass density, 303.15 K [kg/m3]	mass density, 313.15 K [kg/m3]	mass density, 323.15 K [kg/m3]	speed of sound, 303.15 K [m/s]	speed of sound, 313.15 K [m/s]	speed of sound, 323.15 K [m/s]
x2 = 0	990.1	981.7	973.3	1579	1539	1501
x2 = 0.0717	968.9	962.3	955.7	1530	1491	1457
x2 = 0.1513	946.3	940.3	934.4	1475	1437	1404
x2 = 0.2389	922	916.1	910.4	1415	1378	1343
x2 = 0.3255	898.8	892.6	886.4	1359	1320	1284
x2 = 0.4206	873.5	866.9	860.2	1299	1259	1224
x2 = 0.5248	845.6	838.8	831.6	1237	1197	1160
x2 = 0.625	817.9	811	803.6	1180	1139	1103
x2 = 0.7415	784.9	777.6	770	1116	1074	1038
x2 = 0.866	749.3	741	732.8	1049	1007	968

CC(C)OC(C)C [diisopropyl ether] + Cc1cccc(N)c1
[1], x1 = 1
Settings	mass density [kg/m3]	speed of sound [m/s]
303.15 K	712.9	976
313.15 K	702.9	932
323.15 K	691.9	889

CC(C)OC(C)C [diisopropyl ether] + Cc1ccccc1N
[1], x1 = 1
Settings	mass density [kg/m3]	speed of sound [m/s]
303.15 K	712.9	976
313.15 K	702.5	932
323.15 K	691.9	889

C1CCOC1 [tetrahydrofuran] + Cc1ccccc1N
[1], x1 = 1
Settings	mass density [kg/m3]	speed of sound [m/s]
303.15 K	876.9	1254
313.15 K	865.7	1207
323.15 K	854.8	1165

Cc1cccc(N)c1 [3-methylaniline]
[2]
Settings	mass density [kg/m3]	speed of sound [m/s]
303.15 K	980.8	1567
313.15 K	972.7	1533
323.15 K	964.6	1492

C1CCOC1 [tetrahydrofuran] + Cc1cccc(N)c1
[1], x1 = 1
Settings	mass density [kg/m3]	speed of sound [m/s]
303.15 K	876.9	1254
313.15 K	865.7	1207
323.15 K	854.8	1165

CC(C)OC(C)C [diisopropyl ether]
[2]
Settings	mass density	speed of sound [m/s]
303.15 K	712.9 kg/m3	976
313.15 K	702.5 kg/m3 and 702.9 kg/m3	932
323.15 K	691.9 kg/m3	889

Cc1ccccc1N [2-methylaniline] + C1CCOC1
[1]
Settings	mass density, 303.15 K [kg/m3]	mass density, 313.15 K [kg/m3]	mass density, 323.15 K [kg/m3]	speed of sound, 303.15 K [m/s]	speed of sound, 313.15 K [m/s]	speed of sound, 323.15 K [m/s]
x2 = 0	990.1	981.7	973.3	1579	1539	1501
x2 = 0.0828	984	975.9	968	1559	1519	1482
x2 = 0.1818	977	969.2	961.5	1534	1493	1458
x2 = 0.2807	969.9	962.2	954.6	1508	1467	1431
x2 = 0.3704	962.6	954.9	947.3	1482	1442	1406
x2 = 0.4652	953.7	945.9	938.2	1455	1414	1377
x2 = 0.5732	941.7	933.8	925.9	1421	1379	1342
x2 = 0.6764	928.4	920.1	911.9	1382	1341	1305
x2 = 0.7791	913.3	904.7	896	1343	1301	1264
x2 = 0.888	895.8	886.4	877	1300	1255	1219

Cc1cccc(N)c1 [3-methylaniline] + CC(C)OC(C)C
[1]
Settings	mass density, 303.15 K [kg/m3]	mass density, 313.15 K [kg/m3]	mass density, 323.15 K [kg/m3]	speed of sound, 303.15 K [m/s]	speed of sound, 313.15 K [m/s]	speed of sound, 323.15 K [m/s]
x2 = 0	980.8	972.7	964.6	1567	1533	1492
x2 = 0.0743	961	954.3	946.9	1515	1482	1443
x2 = 0.1546	939.9	934	927	1462	1429	1391
x2 = 0.2421	917.2	911.5	904.6	1404	1371	1334
x2 = 0.3279	894.6	888.9	881.9	1350	1315	1280
x2 = 0.4275	868	862.1	855	1289	1254	1218
x2 = 0.53	840	834	826.9	1230	1193	1158
x2 = 0.6285	812.7	806.4	799.4	1175	1138	1101
x2 = 0.7424	781.2	774.5	767	1113	1075	1036
x2 = 0.8651	747.8	740.1	731.6	1048	1007	966

Cc1ccccc1N [2-methylaniline]
[2]
Settings	mass density [kg/m3]	speed of sound [m/s]
303.15 K	990.1	1579
313.15 K	981.7	1539
323.15 K	973.3	1501
